The values below are quoted from earlier work in patent US9782413B2, “Composition for treatment of essential thrombocythemia” (AOP ORPHAN PHARMACEUTICALS AG, priority 2010, dated 2017).

Data set [1] concerns phosphodiesterase (PDE) 3.
For data set [2] the following is noted: after anagrelide administration.
For data set [3], the system named is platelets.

Regarding `O=C1NC2=Nc3ccc(Cl)c(Cl)c3CN2C1O` (stereo not shown) [3-hydroxyanagrelide], in data set [1], the “phosphodiesterase (PDE) 3 inhibitory activity” value was “considerably more potent than anagrelide”. Also, the “delay of peak plasma level compared to the parent drug” value in data set [2] is “about 45 mm”.

As for `NC1=Nc2ccc(Cl)c(Cl)c2CN1` [RL 603, 2-amino-5,6-dichloro-3,4-dihydroquinazolone], the “phosphodiesterase (PDE) 3 inhibitory activity” value in data set [1] was “lacks these activities”. In addition, the “platelet reduction in vivo” value in data set [3] was “lacks these activities”.
